Measurements taken from paper PMC9286623.

Test: head-to-tail macrolactamisation of side-chain-protected linear peptides (crude from 2-ClTrt resin, TFE cleavage); DEPBT (2-2.5 equiv), NEt3 (10-12 equiv), 24 h; AcOH quench, prep HPLC
Settings: MeCN with <1-10% DMSO (3i: 5% DMF in MeCN), 2.0 mM, 25.0 °C

Work on CC[C@H](C)[C@@H]1NC(=O)[C@H](COC(C)(C)C)NC(=O)[C@H](CCCCNC(=O)OC(C)(C)C)NC(=O)[C@H](Cc2ccccc2)NC(=O)[C@@H]2CCCN2C(=O)[C@H](CCCCNC(=O)OC(C)(C)C)NC(=O)[C@H](CSC(c2ccccc2)(c2ccccc2)c2ccccc2)NC(=O)[C@H](CCCCNC(=O)OC(C)(C)C)NC1=O yielded a ring closure, isolated yield (from CC[C@H](C)[C@H](NC(=O)[C@H](COC(C)(C)C)NC(=O)[C@H](CCCCNC(=O)OC(C)(C)C)NC(=O)[C@H](Cc1ccccc1)NC(=O)[C@@H]1CCCN1C(=O)[C@H](CCCCNC(=O)OC(C)(C)C)NC(=O)[C@H](CSC(c1ccccc1)(c1ccccc1)c1ccccc1)NC(=O)[C@@H](N)CCCCNC(=O)OC(C)(C)C)C(=O)O, 24-membered ring, 24.0 h) of 22%.

With CC[C@H](C)[C@@H]1NC(=O)[C@H](CSC(c2ccccc2)(c2ccccc2)c2ccccc2)NC(=O)[C@@H]2CCCN2C(=O)[C@H](CCCCNC(=O)OC(C)(C)C)NC(=O)[C@H](COC(C)(C)C)NC(=O)[C@H](CCCCNC(=O)OC(C)(C)C)NC(=O)[C@H](CCCCNC(=O)OC(C)(C)C)NC(=O)[C@H](Cc2ccccc2)NC1=O the ring closure, isolated yield (from CC[C@H](C)[C@H](NC(=O)[C@H](CSC(c1ccccc1)(c1ccccc1)c1ccccc1)NC(=O)[C@@H]1CCCN1C(=O)[C@H](CCCCNC(=O)OC(C)(C)C)NC(=O)[C@H](COC(C)(C)C)NC(=O)[C@@H](N)CCCCNC(=O)OC(C)(C)C)C(=O)N[C@@H](Cc1ccccc1)C(=O)N[C@@H](CCCCNC(=O)OC(C)(C)C)C(=O)O, 24-membered ring, 24.0 h) was 36%.

Cc1c(C)c(S(=O)(=O)NC(=N)NCCC[C@@H]2NC(=O)[C@H](C)NC(=O)[C@H](Cc3cn(C(=O)OC(C)(C)C)c4ccccc34)NC(=O)[C@H]([C@@H](C)OC(C)(C)C)NC(=O)[C@H](C)NC2=O)c(C)c2c1OC(C)(C)C2 [H-Arg(Pbf)-Ala-Thr(tBu)-Trp(Boc)-Ala-OH] gave a ring closure, isolated yield (from Cc1c(C)c(S(=O)(=O)NC(=N)NCCC[C@H](N)C(=O)N[C@@H](C)C(=O)N[C@H](C(=O)N[C@@H](Cc2cn(C(=O)OC(C)(C)C)c3ccccc23)C(=O)N[C@@H](C)C(=O)O)[C@@H](C)OC(C)(C)C)c(C)c2c1OC(C)(C)C2, 15-membered ring, 24.0 h) of 27%.

In the case of Cc1c(C)c(S(=O)(=O)NC(=N)NCCC[C@@H]2NC(=O)[C@H](C)NC(=O)[C@H](C)NC(=O)[C@H]([C@@H](C)OC(C)(C)C)NC(=O)[C@H](CSC(c3ccccc3)(c3ccccc3)c3ccccc3)NC2=O)c(C)c2c1OC(C)(C)C2 [H-Arg(Pbf)-Cys(Trt)-Thr(tBu)-Ala-Ala-OH], the ring closure, isolated yield (from Cc1c(C)c(S(=O)(=O)NC(=N)NCCC[C@H](N)C(=O)N[C@@H](CSC(c2ccccc2)(c2ccccc2)c2ccccc2)C(=O)N[C@H](C(=O)N[C@@H](C)C(=O)N[C@@H](C)C(=O)O)[C@@H](C)OC(C)(C)C)c(C)c2c1OC(C)(C)C2, 15-membered ring, 24.0 h) is reported as 21%.

Cc1c(C)c(S(=O)(=O)NC(=N)NCCC[C@@H]2NC(=O)[C@H](C)NC(=O)[C@H](CSC(c3ccccc3)(c3ccccc3)c3ccccc3)NC(=O)[C@H]([C@@H](C)OC(C)(C)C)NC(=O)[C@H](CSC(c3ccccc3)(c3ccccc3)c3ccccc3)NC2=O)c(C)c2c1OC(C)(C)C2 [H-Arg(Pbf)-Cys(Trt)-Thr(tBu)-Cys(Trt)-Ala-OH] showed a ring closure, isolated yield (from Cc1c(C)c(S(=O)(=O)NC(=N)NCCC[C@H](N)C(=O)N[C@@H](CSC(c2ccccc2)(c2ccccc2)c2ccccc2)C(=O)N[C@H](C(=O)N[C@@H](CSC(c2ccccc2)(c2ccccc2)c2ccccc2)C(=O)N[C@@H](C)C(=O)O)[C@@H](C)OC(C)(C)C)c(C)c2c1OC(C)(C)C2, 15-membered ring, 24.0 h) of 16%.

In the case of Cc1c(C)c(S(=O)(=O)NC(=N)NCCC[C@@H]2NC(=O)[C@H](C)NC(=O)[C@H](Cc3cn(C(=O)OC(C)(C)C)c4ccccc34)NC(=O)[C@H]([C@@H](C)OC(C)(C)C)NC(=O)[C@H](CSC(c3ccccc3)(c3ccccc3)c3ccccc3)NC2=O)c(C)c2c1OC(C)(C)C2 [H-Arg(Pbf)-Cys(Trt)-Thr(tBu)-Trp(Boc)-Ala-OH], the ring closure, isolated yield (from Cc1c(C)c(S(=O)(=O)NC(=N)NCCC[C@H](N)C(=O)N[C@@H](CSC(c2ccccc2)(c2ccccc2)c2ccccc2)C(=O)N[C@H](C(=O)N[C@@H](Cc2cn(C(=O)OC(C)(C)C)c3ccccc23)C(=O)N[C@@H](C)C(=O)O)[C@@H](C)OC(C)(C)C)c(C)c2c1OC(C)(C)C2, 15-membered ring, 24.0 h) is reported as 16%.

Cc1c(C)c(S(=O)(=O)NC(=N)NCCC[C@@H]2NC(=O)[C@H](C)NC(=O)[C@H](Cc3cn(C(=O)OC(C)(C)C)c4ccccc34)NC(=O)[C@H]([C@@H](C)OC(C)(C)C)NC(=O)[C@@H]3CCCN3C2=O)c(C)c2c1OC(C)(C)C2 [H-Arg(Pbf)-Pro-Thr(tBu)-Trp(Boc)-Ala-OH] showed a ring closure, isolated yield (from Cc1c(C)c(S(=O)(=O)NC(=N)NCCC[C@H](N)C(=O)N2CCC[C@H]2C(=O)N[C@H](C(=O)N[C@@H](Cc2cn(C(=O)OC(C)(C)C)c3ccccc23)C(=O)N[C@@H](C)C(=O)O)[C@@H](C)OC(C)(C)C)c(C)c2c1OC(C)(C)C2, 15-membered ring, 24.0 h) of 0%.

Work on CC[C@H](C)[C@@H]1NC(=O)[C@@H]2CCCN2C(=O)[C@H](CCCCNC(=O)OC(C)(C)C)NC(=O)[C@H](CSC(c2ccccc2)(c2ccccc2)c2ccccc2)NC(=O)[C@H](Cc2cn(C(=O)OC(C)(C)C)c3ccccc23)NC(=O)[C@H]([C@@H](C)OC(C)(C)C)NC(=O)[C@@H]2CCCN2C1=O [H-Cys(Trt)-Lys(Boc)-Pro-Ile-Pro-Thr(tBu)-Trp(Boc)-OH] yielded a ring closure, isolated yield (from CC[C@H](C)[C@H](NC(=O)[C@@H]1CCCN1C(=O)[C@H](CCCCNC(=O)OC(C)(C)C)NC(=O)[C@@H](N)CSC(c1ccccc1)(c1ccccc1)c1ccccc1)C(=O)N1CCC[C@H]1C(=O)N[C@H](C(=O)N[C@@H](Cc1cn(C(=O)OC(C)(C)C)c2ccccc12)C(=O)O)[C@@H](C)OC(C)(C)C, 21-membered ring) of 0%.

Work on CC(C)C[C@@H]1NC(=O)[C@H](CC(C)C)NC(=O)[C@H](CC(=O)NC(c2ccccc2)(c2ccccc2)c2ccccc2)NC(=O)[C@@H]2CCCN2C(=O)[C@@H]2CCCN2C(=O)[C@H](CSC(c2ccccc2)(c2ccccc2)c2ccccc2)NC(=O)[C@H](CC(C)C)NC(=O)[C@H](CCC(=O)OC(C)(C)C)NC1=O [H-Glu(OtBu)-Leu-Cys(Trt)-Pro-Pro-Asn(Trt)-Leu-Leu-OH] yielded a ring closure, isolated yield (from CC(C)C[C@H](NC(=O)[C@H](CC(C)C)NC(=O)[C@H](CC(=O)NC(c1ccccc1)(c1ccccc1)c1ccccc1)NC(=O)[C@@H]1CCCN1C(=O)[C@@H]1CCCN1C(=O)[C@H](CSC(c1ccccc1)(c1ccccc1)c1ccccc1)NC(=O)[C@H](CC(C)C)NC(=O)[C@@H](N)CCC(=O)OC(C)(C)C)C(=O)O, 24-membered ring, 24.0 h) of 26%.

For CC(C)C[C@@H]1NC(=O)[C@H](CSC(c2ccccc2)(c2ccccc2)c2ccccc2)NC(=O)[C@H](CC(C)C)NC(=O)[C@@H]2CCCN2C(=O)[C@H](CC(=O)NC(c2ccccc2)(c2ccccc2)c2ccccc2)NC(=O)[C@H](CC(C)C)NC(=O)[C@@H]2CCCN2C(=O)[C@H](CCC(=O)OC(C)(C)C)NC1=O [H-Leu-Glu(OtBu)-Pro-Leu-Asn(Trt)-Pro-Leu-Cys(Trt)-OH], the ring closure, isolated yield (from CC(C)C[C@H](NC(=O)[C@@H]1CCCN1C(=O)[C@H](CC(=O)NC(c1ccccc1)(c1ccccc1)c1ccccc1)NC(=O)[C@H](CC(C)C)NC(=O)[C@@H]1CCCN1C(=O)[C@H](CCC(=O)OC(C)(C)C)NC(=O)[C@@H](N)CC(C)C)C(=O)N[C@@H](CSC(c1ccccc1)(c1ccccc1)c1ccccc1)C(=O)O, 24-membered ring, 24.0 h) was 23%.

For CC[C@H](C)[C@@H]1NC(=O)[C@@H]2CCCN2C(=O)[C@H](CCCCNC(=O)OC(C)(C)C)NC(=O)[C@H](CSC(c2ccccc2)(c2ccccc2)c2ccccc2)NC(=O)[C@H](Cc2cn(C(=O)OC(C)(C)C)c3ccccc23)NC(=O)[C@H]([C@@H](C)OC(C)(C)C)NC(=O)[C@@H]2CCCN2C1=O [H-Lys(Boc)-Pro-Ile-Pro-Thr(tBu)-Trp(Boc)-Cys(Trt)-OH], the ring closure, isolated yield (from CC[C@H](C)[C@H](NC(=O)[C@@H]1CCCN1C(=O)[C@@H](N)CCCCNC(=O)OC(C)(C)C)C(=O)N1CCC[C@H]1C(=O)N[C@H](C(=O)N[C@@H](Cc1cn(C(=O)OC(C)(C)C)c2ccccc12)C(=O)N[C@@H](CSC(c1ccccc1)(c1ccccc1)c1ccccc1)C(=O)O)[C@@H](C)OC(C)(C)C, 21-membered ring) was 0%.

With CC[C@H](C)[C@@H]1NC(=O)[C@H](Cc2cn(C(=O)OC(C)(C)C)c3ccccc23)NC(=O)[C@@H]2CCCN2C(=O)[C@H](CSC(c2ccccc2)(c2ccccc2)c2ccccc2)NC(=O)[C@@H]2CCCN2C(=O)[C@H](CCCCNC(=O)OC(C)(C)C)NC(=O)[C@H]([C@@H](C)OC(C)(C)C)NC1=O [H-Thr(tBu)-Lys(Boc)-Pro-Cys(Trt)-Pro-Trp(Boc)-Ile-OH] the ring closure, isolated yield (from CC[C@H](C)[C@H](NC(=O)[C@H](Cc1cn(C(=O)OC(C)(C)C)c2ccccc12)NC(=O)[C@@H]1CCCN1C(=O)[C@H](CSC(c1ccccc1)(c1ccccc1)c1ccccc1)NC(=O)[C@@H]1CCCN1C(=O)[C@H](CCCCNC(=O)OC(C)(C)C)NC(=O)[C@@H](N)[C@@H](C)OC(C)(C)C)C(=O)O, 21-membered ring, 24.0 h) was 29%.

CC[C@H](C)[C@@H]1NC(=O)[C@@H]2CCCN2C(=O)[C@H](CCCCNC(=O)OC(C)(C)C)NC(=O)[C@H](CSC(c2ccccc2)(c2ccccc2)c2ccccc2)NC(=O)[C@H](Cc2cn(C(=O)OC(C)(C)C)c3ccccc23)NC(=O)[C@H]([C@@H](C)OC(C)(C)C)NC(=O)[C@@H]2CCCN2C1=O [H-Trp(Boc)-Cys(Trt)-Lys(Boc)-Pro-Ile-Pro-Thr(tBu)-OH] gave a ring closure, isolated yield (from CC[C@H](C)[C@H](NC(=O)[C@@H]1CCCN1C(=O)[C@H](CCCCNC(=O)OC(C)(C)C)NC(=O)[C@H](CSC(c1ccccc1)(c1ccccc1)c1ccccc1)NC(=O)[C@@H](N)Cc1cn(C(=O)OC(C)(C)C)c2ccccc12)C(=O)N1CCC[C@H]1C(=O)N[C@H](C(=O)O)[C@@H](C)OC(C)(C)C, 21-membered ring, 24.0 h) of 12%.
